What was measured:
[1] = target: T1, ER-α (Homo sapiens, UniProt P03372); test: Breast Cancer Cell ER-α In Cell Western Assay (SP1); type: cell-based; conditions: MCF-7 cells, SP1 antibody, 4 or 24 hr post compound addition; for Emax: MCF7, read-out: ER-α In Cell Western Assay (SP1) Max Response; for DC50: read-out: ER-α In Cell Western Assay (SP1) IC50
T1 sequence (P03372 1-595): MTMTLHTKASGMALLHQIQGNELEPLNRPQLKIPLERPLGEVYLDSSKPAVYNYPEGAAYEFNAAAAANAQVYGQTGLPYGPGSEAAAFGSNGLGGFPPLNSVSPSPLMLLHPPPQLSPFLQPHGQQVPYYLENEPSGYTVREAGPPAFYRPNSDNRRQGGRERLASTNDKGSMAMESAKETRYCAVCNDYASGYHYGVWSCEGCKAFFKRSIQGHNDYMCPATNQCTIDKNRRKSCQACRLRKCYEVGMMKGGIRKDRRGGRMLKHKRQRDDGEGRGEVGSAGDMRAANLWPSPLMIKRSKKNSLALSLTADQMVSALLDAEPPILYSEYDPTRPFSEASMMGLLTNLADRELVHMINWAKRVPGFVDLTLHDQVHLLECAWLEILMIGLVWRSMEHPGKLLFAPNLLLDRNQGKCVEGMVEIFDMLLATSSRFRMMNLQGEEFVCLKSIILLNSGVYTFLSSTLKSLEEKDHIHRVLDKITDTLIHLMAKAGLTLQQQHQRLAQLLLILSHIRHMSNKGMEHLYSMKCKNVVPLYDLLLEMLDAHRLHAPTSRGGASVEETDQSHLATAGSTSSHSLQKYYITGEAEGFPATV
In short: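 ER-α protein levels measured by in-cell western with SP1 antibody, ratioed to DRAQ5 DNA signal and given as percent of untreated controls. Compounds added at 0.3–0.000003 μM final (eleven semilog points) to adherent MCF-7 cells in stripped serum; exposure 4 or 24 h before fixation.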

[2] = system: MCF-7 cells; test: Breast Cancer Cell Viability Assay (MCF-7, CellTiter-Glo); type: cell-based; conditions: 5 days' compound exposure; for IC50: Homo sapiens, MCF7, 120 h
In short: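 MCF-7 cells, 320 per well in RPMI with 10% FBS and 20 mM HEPES, adhered overnight, then exposed 5 days to an eleven-point semilog dilution (final 0.3-0.000003 μM). CellTiter-Glo luminescence read; % viability = (sample − cell-free background)/(untreated − background) × 100.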

**Q.** CC/C(=C(/c1ccc(/C=C/C(=O)O)cc1)c1ccc2[nH]ncc2c1)c1cc(F)ccc1Cl [Compound 33, (E)-3-(4-((E)-2-(2-Chloro-5-fluorophenyl)-1-(1H-indazol-5-yl)but-1-en-1-yl)phenyl)acrylic acid] was tested. Which Emax [1] did it give?
**A.** ≥ 40%

**Q.** And the DC50 [1]?
**A.** ≤ 100 nM

**Q.** What about the “MCF7 Viability Assay Max Response” value [2] of the same compound?
**A.** ++ (++ = a single % value ≧ 40%)

**Q.** And the IC50 [2]?
**A.** ≤ 100 nM

**Q.** With O=C(O)/C=C/c1ccc(/C(=C(\c2ccccc2)C(F)F)c2ccc3[nH]ncc3c2)cc1 [Compound 64, (E)-3-(4-((Z)-3,3-Difluoro-1-(1H-indazol-5-yl)-2-phenylprop-1-en-1-yl)phenyl)acrylic acid] as the compound, how does the Emax [1] read?
**A.** ≥ 40%

**Q.** And the DC50 [1]?
**A.** ≤ 100 nM

**Q.** What about the “MCF7 Viability Assay Max Response” value [2] of the same compound?
**A.** ++ (++ = a single % value ≧ 40%)

**Q.** What about the IC50 [2] of the same compound?
**A.** ≤ 100 nM

**Q.** What does the source list for CC/C(=C(/c1ccc(/C=C/C(=O)O)cc1)c1ccc2[nH]ncc2c1)c1cccc(OC)c1Cl [Compound 135, (E)-3-(4-((E)-2-(2-Chloro-3-methoxyphenyl)-1-(1H-indazol-5-yl)but-1-en-1-yl)phenyl)acrylic acid]?
**A.** Emax [1]: ≥ 40%; DC50 [1]: ≤ 100 nM; MCF7 Viability Assay Max Response [2]: ++ (++ = a single % value ≧ 40%); IC50 [2]: ≤ 100 nM

**Q.** Cc1cc(Cl)ccc1/C(=C(\c1ccc(/C=C/C(=O)O)cc1)c1ccc2[nH]ncc2c1F)C1CC1 [Compound 72, (E)-3-(4-((E)-2-(4-Chloro-2-methylphenyl)-2-cyclopropyl-1-(4-fluoro-1H-indazol-5-yl)vinyl)phenyl)acrylic acid] was tested. Which Emax [1] did it give?
**A.** ≥ 40%

**Q.** And the DC50 [1]?
**A.** ≤ 100 nM

**Q.** What about the “MCF7 Viability Assay Max Response” value [2] of the same compound?
**A.** ++ (++ = a single % value ≧ 40%)

**Q.** What about the IC50 [2] of the same compound?
**A.** ≤ 100 nM

**Q.** With CC/C(=C(\c1ccc2[nH]ncc2c1)c1ccc(/C=C/C(=O)O)cc1C)c1ccccc1 [Compound 100, (E)-3-(4-((Z)-1-(1H-Indazol-5-yl)-2-phenylbut-1-en-1-yl)-3-methylphenyl)acrylic acid] as the compound, how does the Emax [1] read?
**A.** ≥ 40%

**Q.** And the “MCF7 Viability Assay Max Response” value [2]?
**A.** ++ (++ = a single % value ≧ 40%)

**Q.** And the IC50 [2]?
**A.** ≤ 100 nM

**Q.** With CC/C(=C(/c1ccc(/C=C/C(=O)O)cc1)c1ccc2[nH]ncc2c1)c1c(C)cccc1Cl [Compound 34, (E)-3-(4-((E)-2-(2-Chloro-6-methylphenyl)-1-(1H-indazol-5-yl)but-1-en-1 yl)phenyl)acrylic acid] as the compound, how does the Emax [1] read?
**A.** ≥ 40%

**Q.** What about the DC50 [1] of the same compound?
**A.** ≤ 100 nM

**Q.** And the “MCF7 Viability Assay Max Response” value [2]?
**A.** ++ (++ = a single % value ≧ 40%)

**Q.** And the IC50 [2]?
**A.** ≤ 100 nM

**Q.** CC/C(=C(/c1ccc(/C=C/C(=O)O)cc1)c1ccc2[nH]ncc2c1)c1ccc(OC)cc1C [Compound 128, (E)-3-(4-((E)-1-(1H-Indazol-5-yl)-2-(4-methoxy-2-methylphenyl)but-1-en-1-yl)phenyl)acrylic acid] was tested. Which Emax [1] did it give?
**A.** ≥ 40%

**Q.** And the DC50 [1]?
**A.** ≤ 100 nM

**Q.** And the “MCF7 Viability Assay Max Response” value [2]?
**A.** ++ (++ = a single % value ≧ 40%)

**Q.** What about the IC50 [2] of the same compound?
**A.** ≤ 100 nM

**Q.** Which Emax [1] does the source give for CC/C(=C(/c1ccc(/C=C/C(=O)O)cc1)c1ccc2[nH]ncc2c1)c1cc(OC)ccc1Cl [Compound 130, (E)-3-(4-((E)-2-(2-Chloro-5-methoxyphenyl)-1-(1H-indazol-5-yl)but-1-en-1-yl)phenyl)acrylic acid] here?
**A.** ≥ 40%

**Q.** And the DC50 [1]?
**A.** ≤ 100 nM

**Q.** What about the “MCF7 Viability Assay Max Response” value [2] of the same compound?
**A.** ++ (++ = a single % value ≧ 40%)

**Q.** What about the IC50 [2] of the same compound?
**A.** ≤ 100 nM

**Q.** With CC/C(=C(/c1ccc(/C=C/C(=O)O)cc1)c1ccc2[nH]ncc2c1)c1cc(C#N)ccc1C [Compound 143, (E)-3-(4-((E)-2-(5-Cyano-2-methylphenyl)-1-(1H-indazol-5-yl)but-1-en-1-yl)phenyl)acrylic acid] as the compound, how does the Emax [1] read?
**A.** ≥ 40%

**Q.** What about the DC50 [1] of the same compound?
**A.** ≤ 100 nM

**Q.** And the “MCF7 Viability Assay Max Response” value [2]?
**A.** ++ (++ = a single % value ≧ 40%)

**Q.** And the IC50 [2]?
**A.** > 100 nM

**Q.** Which results are given for O=C(O)/C=C/c1ccc(/C(=C(\c2ccc(F)cc2Cl)C2CCC2)c2ccc3[nH]nc(F)c3c2)cc1 [Compound 89, (E)-3-(4-((E)-2-(2-Chloro-4-fluorophenyl)-2-cyclobutyl-1-(3-fluoro-1H-indazol-5-yl)vinyl)phenyl)acrylic acid]?
**A.** Emax [1]: ≥ 40%; DC50 [1]: ≤ 100 nM; MCF7 Viability Assay Max Response [2]: ++ (++ = a single % value ≧ 40%); IC50 [2]: ≤ 100 nM

**Q.** What does the source list for CC/C(=C(/c1ccc(/C=C/C(=O)O)cc1)c1ccc2[nH]ncc2c1)c1ccc(F)cc1F [Compound 22, (E)-3-(4-((E)-2-(2,4-Difluorophenyl)-1-(1H-indazol-5-yl)but-1-en-1-yl)phenyl)acrylic acid]?
**A.** Emax [1]: ≥ 40%; DC50 [1]: ≤ 100 nM; MCF7 Viability Assay Max Response [2]: ++ (++ = a single % value ≧ 40%); IC50 [2]: ≤ 100 nM

**Q.** What does the source list for CC/C(=C(/c1ccc(/C=C/C(=O)O)cc1)c1ccc2[nH]nc(F)c2c1)c1ccc(F)cc1Cl [Compound 88, (E)-3-(4-((E)-2-(2-Chloro-4-fluorophenyl)-1-(3-fluoro-1H-indazol-5-yl)but-1-en-1-yl)phenyl)acrylic acid]?
**A.** Emax [1]: ≥ 40%; DC50 [1]: ≤ 100 nM; MCF7 Viability Assay Max Response [2]: ++ (++ = a single % value ≧ 40%); IC50 [2]: ≤ 100 nM

**Q.** How did the Emax [1] turn out when CC/C(=C(/c1ccc(/C=C/C(=O)O)cc1)c1ccc2[nH]ncc2c1)c1cccc(F)c1F [Compound 31, (E)-3-(4-((E)-2-(2,3-Difluorophenyl)-1-(1H-indazol-5-yl)but-1-en-1-yl)phenyl)acrylic acid] was run?
**A.** ≥ 40%

**Q.** And the DC50 [1]?
**A.** ≤ 100 nM

**Q.** And the “MCF7 Viability Assay Max Response” value [2]?
**A.** ++ (++ = a single % value ≧ 40%)

**Q.** What about the IC50 [2] of the same compound?
**A.** ≤ 100 nM

**Q.** How did the Emax [1] turn out when CC/C(=C(/c1ccc(/C=C/C(=O)O)cc1)c1ccc2[nH]ncc2c1)c1c(F)cccc1F [Compound 26, (E)-3-(4-((E)-2-(2,6-Difluorophenyl)-1-(1H-indazol-5-yl)but-1-en-1-yl)phenyl)acrylic acid] was run?
**A.** ≥ 40%

**Q.** What about the DC50 [1] of the same compound?
**A.** ≤ 100 nM

**Q.** What about the “MCF7 Viability Assay Max Response” value [2] of the same compound?
**A.** ++ (++ = a single % value ≧ 40%)

**Q.** What about the IC50 [2] of the same compound?
**A.** ≤ 100 nM

**Q.** O=C(O)/C=C/c1ccc(/C(=C(/CCCl)c2ccccc2)c2ccc3[nH]ncc3c2)cc1 [Compound 20, (E)-3-(4-((E)-4-Chloro-1-(1H-indazol-5-yl)-2-phenylbut-1-en-1-yl)phenyl)acrylic acid] was tested. Which Emax [1] did it give?
**A.** ≥ 40%

**Q.** And the DC50 [1]?
**A.** ≤ 100 nM

**Q.** What about the “MCF7 Viability Assay Max Response” value [2] of the same compound?
**A.** ++ (++ = a single % value ≧ 40%)

**Q.** And the IC50 [2]?
**A.** ≤ 100 nM
